In patent US6603044B1, “Phthalamide derivatives, or salt thereof agrohorticultural insecticide, and method for using the same” (Nihon Nohyaku Co., Ltd., priority 1998, dated 2003):

Test system: Diamond Back Moth (Plutella xylostella)
Experiment: Insecticidal effect on diamond back moth (Test Example 1)
Format: in vivo
Conditions: 50 ppm; Chinese cabbage seedling with deposited eggs immersed about 30 seconds; 25° C.; six days after the immersion
Text: Insecticidal Effect on Diamond Back Moth (Plutella xylostella)
Adult diamondback moths were released and allowed to oviposit on a Chinese cabbage seedling. Two days after the release, the seedling having the eggs deposited thereon was immersed for about 30 seconds in a liquid chemical prepared by diluting a preparation containing each compound listed in Table 1, 2 or 3 as an active ingredient to adjust the concentration to 50 ppm. After air-dryness, it was allowed to stand in a room thermostatted at 25° C. Six days after the immersion, the hatched insects were counted. The mortality was calculated according to the following equation and the insecticidal effect was judged according to the criterion shown below. The test was carried out with triplicate groups of 10 insects.

Structure (SMILES) | Test Example 1 insecticidal effect (mortality)
CSCC(C)NC(=O)c1ccccc1C(=O)Nc1ccc(OC(F)(F)F)cc1C (stereo not drawn) [compound 15] | A (100)
CSCC(C)(C)NC(=O)c1c(C(=O)Nc2ccc(Br)cc2C)cccc1[N+](=O)[O-] [compound 324] | A (100)
CC[S+]([O-])CCCC(C)NC(=O)c1c(Br)cccc1C(=O)Nc1ccc(C(F)(C(F)(F)F)C(F)(F)F)cc1C (stereo not drawn) [compound 214] | A (100)
Cc1cc(C(F)(C(F)(F)F)C(F)(F)F)ccc1NC(=O)c1cccc(Cl)c1C(=O)NC(C)(C)C[S+](C)[O-] (stereo not drawn) [compound 172] | A (100)
Cc1cc(C(F)(F)F)ccc1NC(=O)c1cccc([N+](=O)[O-])c1C(=O)NC(C)C[S+](C)[O-] (stereo not drawn) [compound 390] | A (100)
Cc1cc(C(F)(F)C(F)(F)F)ccc1NC(=O)c1cccc(Cl)c1C(=O)NC(C)CCC[S+](C)[O-] (stereo not drawn) [compound 152] | A (100)
CCN(CC)S(=O)(=O)c1ccc(NC(=O)c2cccc(I)c2C(=O)NC(C)(C)CSC)cc1 [compound 478] | A (100)
Cc1cc(OC(F)(F)F)ccc1NC(=O)c1cccc(I)c1C(=O)NC1CCSC1 (stereo not drawn) [compound 258] | A (100)
CSCC(C)NC(=O)c1c(C(=O)Nc2ccc(C(F)(C(F)(F)F)C(F)(F)F)cc2C)cccc1[S+]([O-])C(F)(F)F (stereo not drawn) [compound 132] | A (100)
CSCC(C)(C)NC(=O)c1c(I)cccc1C(=O)Nc1ccc(C(=O)c2ccc(Cl)cc2)cc1C [compound 469] | A (100)
CCSCC(C)NC(=O)c1c(F)cccc1C(=O)Nc1ccc(OC(F)(F)F)cc1C (stereo not drawn) [compound 27] | A (100)
Cc1cc(C(F)(C(F)(F)F)C(F)(F)F)ccc1NC(=O)c1ccc2c(c1C(=O)NC(C)CS(C)(=O)=O)OC(F)(F)O2 (stereo not drawn) [compound 289] | A (100)
CSCC(C)NC(=O)c1ccc(I)cc1C(=O)Nc1ccc(OC(F)(F)F)cc1C (stereo not drawn) [compound 110] | A (100)
CSCC(C)NC(=O)c1c(I)cccc1C(=O)Nc1cc2c(cc1Cl)OC(F)(F)C(F)O2 (stereo not drawn) [compound 47] | A (100)
COC(=O)CCS(=O)(=O)CC(C)NC(=O)c1c(I)cccc1C(=O)Nc1ccc(C(F)(C(F)(F)F)C(F)(F)F)cc1C (stereo not drawn) [compound 343] | A (100)
CCN(CC[S+](C)[O-])C(=O)c1c(F)cccc1C(=O)Nc1ccc(C(F)(C(F)(F)F)C(F)(F)F)cc1C (stereo not drawn) [2-11] | A (100)
CSCCCC(C)NC(=O)c1cccc(Cl)c1C(=O)Nc1ccc(C(F)(F)C(F)(F)F)cc1C (stereo not drawn) [compound 151] | A (100)
CSCC(C)NC(=O)c1c(SC(F)(F)F)cccc1C(=O)Nc1ccc(C(F)(F)C(F)(F)F)cc1C (stereo not drawn) [compound 129] | A (100)
CCCCCCSCC(C)NC(=O)c1c(I)cccc1C(=O)Nc1ccc(OC(F)(F)F)cc1C (stereo not drawn) [compound 77] | A (100)
CSCC(CSC)NC(=O)c1c(I)cccc1C(=O)Nc1ccc(C(F)(F)C(F)(F)F)cc1C [compound 36] | A (100)

Structure (SMILES) | Test Example 1 insecticidal effect (mortality)
CC[S+]([O-])CCCCC(C)NC(=O)c1c(I)cccc1C(=O)Nc1ccc(C(F)(F)C(F)(F)F)cc1C (stereo not drawn) [compound 177] | A (100)
Cc1cc(C(F)(C(F)(F)F)C(F)(F)F)ccc1NC(=O)c1cccc(F)c1C(=O)N(C)CC[S+](C)[O-] (stereo not drawn) [2-9] | A (100)
CSCC(C)(C)NC(=O)c1c(C(=O)Nc2ccc(OC(F)(F)F)cc2C)cccc1[N+](=O)[O-] [compound 322] | A (100)
CSCC(C)(C)NC(=O)c1ccc(OC(F)(F)F)cc1C(=O)Nc1ccc(C(F)(C(F)(F)F)C(F)(F)F)cc1C [compound 356] | A (100)
CCS(=O)(=O)CCC(C)NC(=O)c1c(Cl)cccc1C(=O)Nc1ccc(C(F)(C(F)(F)F)C(F)(F)F)cc1C (stereo not drawn) [compound 275] | A (100)
CSCCCNC(=O)c1c(I)cccc1C(=O)Nc1ccc(OC(F)(F)F)cc1C [compound 55] | A (100)
Cc1cc(OC(F)(F)F)ccc1NC(=O)c1cccc([N+](=O)[O-])c1C(=O)NC(C)C[S+](C)[O-] (stereo not drawn) [compound 389] | A (100)
Cc1cc(C(F)(F)F)ccc1NC(=O)c1cccc(Br)c1C(=O)NC(C)CS(C)(=O)=O (stereo not drawn) [compound 277] | A (100)
COC(=O)CC[S+]([O-])CC(C)NC(=O)c1c(I)cccc1C(=O)Nc1ccc(C(F)(C(F)(F)F)C(F)(F)F)cc1C (stereo not drawn) [compound 342] | A (100)
Cc1cc(OC(F)(F)F)ccc1NC(=O)c1ccc(Cl)c(Cl)c1C(=O)NC(C)CS(C)(=O)=O (stereo not drawn) [compound 194] | A (100)
Cc1cc(C(F)(C(F)(F)F)C(F)(F)F)ccc1NC(=O)c1cccc(I)c1C(=O)NC1(C[S+](C)[O-])CCCC1 (stereo not drawn) [compound 446] | A (100)
CSCCC(CO)NC(=O)c1c(I)cccc1C(=O)Nc1ccc(C(F)(C(F)(F)F)C(F)(F)F)cc1C (stereo not drawn) [compound 452] | A (100)
CSCC(C)NC(=O)c1cc(I)ccc1C(=O)Nc1ccc(OC(F)(F)F)cc1C (stereo not drawn) [compound 107] | A (100)
C[S+]([O-])CC(C)(C)NC(=O)c1c(C(=O)Nc2ccc(OC(F)(F)F)cc2Cl)cccc1[N+](=O)[O-] (stereo not drawn) [compound 377] | A (100)
CSCC(C)NC(=O)c1c(C(=O)Nc2ccc(OC(F)(F)F)cc2C)cccc1[N+](=O)[O-] (stereo not drawn) [compound 104] | A (100)
CSCC(C)NC(=O)c1c(C(=O)Nc2ccc(OC(F)(F)F)cc2C)ccc(F)c1Cl (stereo not drawn) [compound 147] | A (100)
CSCCNC(=O)c1c(I)cccc1C(=O)Nc1ccc(OC(F)(F)F)cc1C [compound 52] | A (100)
CSCC(C)NC(=O)c1c(C(=O)Nc2ccc(C(F)(F)C(F)(F)F)cc2C)ccc2c1OCO2 (stereo not drawn) [compound 158] | A (100)
Cc1cc(OC(F)(F)F)ccc1NC(=O)c1cccc(I)c1C(=O)NCCSC(C)C [compound 58] | A (100)
CSCCNC(=O)c1cccc(I)c1C(=O)Nc1ccc(OC(F)(F)F)cc1C [compound 51] | A (100)

Structure (SMILES) | Test Example 1 insecticidal effect (mortality)
CC(C)CC(C)c1cc(C(F)(C(F)(F)F)C(F)(F)F)ccc1NC(=O)c1cccc(I)c1C(=O)NC(C)(C)C[S+](C)[O-] (stereo not drawn) [compound 465] | A (100)
CSCC(C)NC(=O)c1c(I)cccc1C(=O)Nc1ccc(Cl)cc1C (stereo not drawn) [compound 9] | A (100)
Cc1cc(C(F)(F)C(F)(F)F)ccc1NC(=O)c1cccc([N+](=O)[O-])c1C(=O)NC(C)C[S+](C)[O-] (stereo not drawn) [compound 391] | A (100)
Cc1cc(C(F)(C(F)(F)F)C(F)(F)F)ccc1NC(=O)c1cccc(I)c1C(=O)NC(C)CS(=O)(=O)c1nc2ccccc2s1 (stereo not drawn) [compound 345] | A (100)
Cc1cc(C(F)(C(F)(F)F)C(F)(F)F)ccc1NC(=O)c1cccc(I)c1C(=O)N1CCSC1 [3-2] | A (100)
C[S+]([O-])CC(C)(C)NC(=O)c1c(F)cccc1C(=O)Nc1ccc(OC(F)(F)F)cc1Cl (stereo not drawn) [compound 386] | A (100)
CC(CS(C)(=O)=O)NC(=O)c1c(I)cccc1C(=O)Nc1cc2c(cc1Cl)OC(F)(F)C(F)O2 (stereo not drawn) [compound 103] | A (100)
CSCC(C)NC(=O)c1c(I)cccc1C(=O)Nc1ccc(OC(F)F)cc1C (stereo not drawn) [compound 4] | A (100)
Cc1cc(C(F)(C(F)(F)F)C(F)(F)F)ccc1NC(=O)c1ccc(C)c(Cl)c1C(=O)NC(C)CS(C)(=O)=O (stereo not drawn) [compound 379] | A (100)
CCC(CSC)NC(=O)c1c(I)cccc1C(=O)Nc1ccc(C(F)(C(F)(F)F)C(F)(F)F)cc1C (stereo not drawn) [compound 120] | A (100)
CSCCN(C)C(=O)c1c(F)cccc1C(=O)Nc1ccc(C(F)(C(F)(F)F)C(F)(F)F)cc1C [2-7] | A (100)
CC(C)(CS(C)(=O)=O)NC(=O)c1c(C(=O)Nc2ccc(OC(F)(F)F)cc2Cl)cccc1[N+](=O)[O-] [compound 378] | A (100)
CSCC(C)(C)NC(=O)c1c(C(=O)Nc2ccc(OC(F)(F)F)cc2C)ccc2c1OC(F)(F)O2 [compound 292] | A (100)
CSCC(C)NC(=O)c1c(F)cccc1C(=O)Nc1ccc(OC(F)(F)F)cc1C (stereo not drawn) [compound 12] | A (100)
CSCC(C)NC(=O)c1c(I)cccc1C(=O)Nc1ccc(C(F)(F)F)cc1C (stereo not drawn) [compound 307] | A (100)
CCSC(C)CNC(=O)c1cccc(I)c1C(=O)Nc1ccc(C(F)(C(F)(F)F)C(F)(F)F)cc1C (stereo not drawn) [compound 209] | A (100)
CCSCCNC(=O)c1c(I)cccc1C(=O)Nc1ccc(OC(F)(F)F)cc1C [compound 71] | A (100)
CCN(CSC)C(=O)c1c(Cl)cccc1C(=O)Nc1ccc(OC(F)(F)F)cc1C [2-16] | A (100)
CCSCC(C)NC(=O)c1ccc(OC(F)(F)F)cc1C(=O)Nc1ccc(C(F)(C(F)(F)F)C(F)(F)F)cc1C (stereo not drawn) [compound 347] | A (100)
Cc1cc(C(F)(F)C(F)(F)F)ccc1NC(=O)c1c(Cl)cccc1C(=O)NC(C)CS(C)(=O)=O (stereo not drawn) [compound 116] | A (100)
